The source made the active and inactive calls. The rule behind the calls is not given here.
Key:
[1] = molecular target: Glutamate NMDA receptor (Rattus norvegicus) (UniProt P35439+Q00959+Q00960+Q00961+Q62645+Q8VHN2+Q9R1M7); assay: NMDA/R Eurofins SafetyScreen44 (BI); assay type: protein-complex assay; details: Compound concentration 10.0 uM
[2] = molecular target: Alpha-2A adrenergic receptor (Homo sapiens) (UniProt P08913); details: Compound concentration 10.0 uM
[3] = molecular target: Vascular endothelial growth factor receptor 2 (Homo sapiens) (UniProt P35968); assay: KDR Invitrogen Lab (UK) kinase screen (BI); details: Compound concentration 1.0 uM
[4] = molecular target: Rho-associated protein kinase 2 (Homo sapiens) (UniProt O75116); assay: ROCK2 Invitrogen Lab (UK) kinase screen (BI); details: Compound concentration 1.0 uM
[5] = molecular target: Alpha-2A adrenergic receptor (Homo sapiens) (UniProt P08913); assay: ALPHA2A/HU Eurofins SafetyScreen44 (BI); details: Compound concentration 10.0 uM
[6] = molecular target: Serine/threonine-protein kinase Nek1 (Homo sapiens) (UniProt Q96PY6); assay: NEK1 Invitrogen Lab (UK) kinase screen (BI); details: Compound concentration 1.0 uM
[7] = molecular target: Mu-type opioid receptor (Homo sapiens) (UniProt P35372); details: Compound concentration 10.0 uM
Sequence of Mu-type opioid receptor (Homo sapiens) (P35372 whole entry): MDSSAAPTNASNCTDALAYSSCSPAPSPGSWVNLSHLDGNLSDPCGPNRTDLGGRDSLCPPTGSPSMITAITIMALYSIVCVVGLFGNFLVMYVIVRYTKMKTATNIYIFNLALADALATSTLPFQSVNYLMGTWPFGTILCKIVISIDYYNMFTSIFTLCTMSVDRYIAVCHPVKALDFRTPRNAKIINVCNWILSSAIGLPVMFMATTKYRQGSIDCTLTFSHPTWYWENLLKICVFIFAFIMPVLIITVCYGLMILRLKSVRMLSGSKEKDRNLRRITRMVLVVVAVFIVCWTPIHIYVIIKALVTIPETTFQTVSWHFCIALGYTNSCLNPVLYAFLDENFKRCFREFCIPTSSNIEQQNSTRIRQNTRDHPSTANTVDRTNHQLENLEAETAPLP

[8] = molecular target: RAC-beta serine/threonine-protein kinase (Homo sapiens) (UniProt P31751); assay: AKT2 Invitrogen Lab (UK) kinase screen (BI); details: Compound concentration 1.0 uM
[9] = molecular target: Neuronal acetylcholine receptor; alpha4/beta2 (Homo sapiens) (UniProt P17787+P43681); assay: N_NEURO_A4B2 Eurofins SafetyScreen44 (BI); assay type: protein-complex assay; details: filed as agonist, Compound concentration 10.0 uM
[10] = molecular target: Casein kinase I isoform alpha (Homo sapiens) (UniProt P48729); assay: CSNK1A1 Invitrogen Lab (UK) kinase screen (BI); details: Compound concentration 1.0 uM
[11] = molecular target: Prostaglandin G/H synthase 2 (Homo sapiens) (UniProt P35354); assay: COX-2 Eurofins SafetyScreen44 (BI); details: Compound concentration 10.0 uM
[12] = molecular target: MAP kinase-activated protein kinase 2 (Homo sapiens) (UniProt P49137); assay: MAPKAPK2 Invitrogen Lab (UK) kinase screen (BI); details: Compound concentration 1.0 uM
[13] = molecular target: 5-hydroxytryptamine receptor 2B (Homo sapiens) (UniProt P41595); assay: 5HT2B/H AG Eurofins SafetyScreen44 (BI); details: filed as agonist, Compound concentration 10.0 uM
[14] = molecular target: MAO-A (amine oxidase [flavin-containing] A) (Rattus norvegicus, UniProt P21396); assay: MAO-A_ANTAG Eurofins SafetyScreen44 (BI); design: scale not given: the % may be the effect or the level left; details: compound concentration 10 uM, read-out: % Ctrl
[15] = molecular target: Tyrosine-protein kinase ABL1 (Homo sapiens) (UniProt P00519); assay: ABL1 Invitrogen Lab (UK) kinase screen (BI); details: Compound concentration 1.0 uM
hERG (KCNH2) = hERG (KCNH2) (Homo sapiens, UniProt Q12809); assay: HERG_DOFETILIDE Eurofins SafetyScreen44 (BI); details: probe [3H]dofetilide, compound concentration 10 uM, read-out: % Ctrl
[16] = molecular target: Adenosine receptor A2a (Homo sapiens) (UniProt P29274); assay: A2A/H Eurofins SafetyScreen44 (BI); details: filed as antagonist, Compound concentration 10.0 uM
[17] = molecular target: Muscarinic acetylcholine receptor M4 (Homo sapiens, UniProt P08173); assay: GPCRScan assay: inhibition of M4; design: radioligand conc. used [nm] 0.3 – 1.0, parental cells stable CHO
Sequence of Muscarinic acetylcholine receptor M4 (P08173 whole entry): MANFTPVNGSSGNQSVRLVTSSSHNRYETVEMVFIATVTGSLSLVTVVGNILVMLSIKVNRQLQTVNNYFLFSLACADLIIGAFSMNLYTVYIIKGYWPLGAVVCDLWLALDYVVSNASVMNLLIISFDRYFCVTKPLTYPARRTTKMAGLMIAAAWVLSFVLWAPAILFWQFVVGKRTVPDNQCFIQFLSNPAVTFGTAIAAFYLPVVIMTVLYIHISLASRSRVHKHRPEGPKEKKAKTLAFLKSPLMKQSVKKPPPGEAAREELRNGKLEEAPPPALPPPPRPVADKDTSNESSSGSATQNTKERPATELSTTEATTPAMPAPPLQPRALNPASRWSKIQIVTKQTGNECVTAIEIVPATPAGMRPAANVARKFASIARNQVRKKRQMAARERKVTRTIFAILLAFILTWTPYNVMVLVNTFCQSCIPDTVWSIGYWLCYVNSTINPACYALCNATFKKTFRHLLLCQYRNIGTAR

[18] = molecular target: T1, B-cell lymphoma 6 protein (Homo sapiens, UniProt P41182); assay: BCL6:BCOR ULight TR-FRET
[19] = molecular target: Histamine H3 receptor (Homo sapiens) (UniProt Q9Y5N1); details: Compound concentration 10.0 uM
Sequence of Histamine H3 receptor (Homo sapiens) (Q9Y5N1 whole entry): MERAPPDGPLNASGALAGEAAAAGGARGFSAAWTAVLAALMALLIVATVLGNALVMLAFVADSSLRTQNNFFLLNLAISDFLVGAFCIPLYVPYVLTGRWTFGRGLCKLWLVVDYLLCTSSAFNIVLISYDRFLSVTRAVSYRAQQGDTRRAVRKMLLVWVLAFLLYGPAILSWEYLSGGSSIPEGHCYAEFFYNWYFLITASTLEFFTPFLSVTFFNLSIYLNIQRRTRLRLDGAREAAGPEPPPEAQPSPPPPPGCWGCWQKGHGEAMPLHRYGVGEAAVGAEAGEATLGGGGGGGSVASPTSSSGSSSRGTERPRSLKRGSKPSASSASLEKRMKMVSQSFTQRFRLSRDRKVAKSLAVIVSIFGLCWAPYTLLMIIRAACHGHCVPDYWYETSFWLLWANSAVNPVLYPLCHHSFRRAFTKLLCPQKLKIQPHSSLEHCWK

[20] = molecular target: L-type Ca2+ channel (dihydropyridine site), Cav1.2 alpha-1C (Rattus norvegicus, UniProt P22002); assay: CA+/DHPSI/R Eurofins SafetyScreen44 (BI); details: rat brain, probe [3H](+)PN200-110, compound concentration 10 uM, read-out: % Ctrl
[21] = molecular target: D(4) dopamine receptor (Homo sapiens) (UniProt P21917); details: Compound concentration 10.0 uM
Sequence of D(4) dopamine receptor (Homo sapiens) (P21917 whole entry): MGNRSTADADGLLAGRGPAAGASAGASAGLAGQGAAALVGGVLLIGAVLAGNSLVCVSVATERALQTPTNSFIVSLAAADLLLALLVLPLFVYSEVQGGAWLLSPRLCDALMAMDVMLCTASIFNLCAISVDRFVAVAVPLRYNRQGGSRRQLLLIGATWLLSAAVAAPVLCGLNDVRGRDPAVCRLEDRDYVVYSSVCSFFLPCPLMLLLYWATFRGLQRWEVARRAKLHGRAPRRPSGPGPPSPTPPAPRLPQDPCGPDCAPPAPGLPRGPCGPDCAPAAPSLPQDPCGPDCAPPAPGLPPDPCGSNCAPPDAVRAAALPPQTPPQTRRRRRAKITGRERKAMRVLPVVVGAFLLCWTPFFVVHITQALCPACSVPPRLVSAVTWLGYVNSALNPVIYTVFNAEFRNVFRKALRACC

[22] = molecular target: Endothelin-1 receptor (Homo sapiens) (UniProt P25101); assay: ETA/H Eurofins SafetyScreen44 (BI); details: Compound concentration 10.0 uM
[23] = molecular target: Beta-3 adrenergic receptor (Homo sapiens) (UniProt P13945); details: Compound concentration 10.0 uM
Sequence of Beta-3 adrenergic receptor (Homo sapiens) (P13945 whole entry, looked up): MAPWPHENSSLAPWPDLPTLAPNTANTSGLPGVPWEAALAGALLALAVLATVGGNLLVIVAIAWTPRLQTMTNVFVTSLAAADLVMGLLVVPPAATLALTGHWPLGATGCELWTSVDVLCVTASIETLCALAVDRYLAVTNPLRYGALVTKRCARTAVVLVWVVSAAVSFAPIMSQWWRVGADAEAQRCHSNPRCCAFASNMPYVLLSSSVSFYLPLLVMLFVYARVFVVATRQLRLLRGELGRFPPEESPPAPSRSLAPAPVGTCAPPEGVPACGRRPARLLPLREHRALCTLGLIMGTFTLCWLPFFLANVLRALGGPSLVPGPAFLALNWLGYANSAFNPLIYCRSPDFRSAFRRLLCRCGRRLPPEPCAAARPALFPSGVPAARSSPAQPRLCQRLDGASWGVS

[24] = molecular target: Mitogen-activated protein kinase 9 (Homo sapiens) (UniProt P45984); assay: MAPK9 Invitrogen Lab (UK) kinase screen (BI); details: Compound concentration 1.0 uM
[25] = molecular target: cGMP-inhibited 3',5'-cyclic phosphodiesterase 3A (Homo sapiens) (UniProt Q14432); assay: PDE3A Eurofins SafetyScreen44 (BI); details: Compound concentration 10.0 uM
[26] = molecular target: T1, B-cell lymphoma 6 protein; assay: BCL6::NCOR LUMIER in cells
[27] = molecular target: Mitogen-activated protein kinase 3 (Homo sapiens) (UniProt P27361); assay: MAPK3 Invitrogen Lab (UK) kinase screen (BI); details: Compound concentration 1.0 uM
[28] = molecular target: Muscarinic acetylcholine receptor M2 (Homo sapiens) (UniProt P08172); details: Compound concentration 10.0 uM
Sequence of Muscarinic acetylcholine receptor M2 (Homo sapiens) (P08172 whole entry): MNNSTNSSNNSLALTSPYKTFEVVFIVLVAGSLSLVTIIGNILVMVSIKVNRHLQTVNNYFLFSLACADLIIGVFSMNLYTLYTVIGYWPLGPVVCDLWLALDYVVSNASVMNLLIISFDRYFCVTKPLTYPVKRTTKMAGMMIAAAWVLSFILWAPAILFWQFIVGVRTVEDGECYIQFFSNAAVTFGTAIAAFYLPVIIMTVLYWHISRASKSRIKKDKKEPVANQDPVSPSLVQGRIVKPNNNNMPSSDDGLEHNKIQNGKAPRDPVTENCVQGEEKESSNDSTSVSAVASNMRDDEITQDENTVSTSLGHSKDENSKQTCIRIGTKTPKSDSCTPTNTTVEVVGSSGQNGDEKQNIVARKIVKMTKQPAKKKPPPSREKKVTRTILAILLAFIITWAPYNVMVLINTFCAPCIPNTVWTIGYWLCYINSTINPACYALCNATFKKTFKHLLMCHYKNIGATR

[29] = molecular target: Mu-type opioid receptor (Homo sapiens) (UniProt P35372); assay: MU/H Eurofins SafetyScreen44 (BI); details: Compound concentration 10.0 uM
[30] = molecular target: Aurora kinase B (Homo sapiens) (UniProt Q96GD4); assay: AURKB Invitrogen Lab (UK) kinase screen (BI); details: Compound concentration 1.0 uM
[31] = molecular target: Sodium-dependent serotonin transporter (Homo sapiens) (UniProt P31645); assay: SLC6A4/H Eurofins SafetyScreen44 (BI); details: filed as antagonist, Compound concentration 10.0 uM
[32] = molecular target: 3',5'-cyclic-AMP phosphodiesterase 4D (Homo sapiens) (UniProt Q08499); assay: PDE4D2 Eurofins SafetyScreen44 (BI); details: Compound concentration 10.0 uM
[33] = molecular target: High affinity nerve growth factor receptor (Homo sapiens) (UniProt P04629); assay: NTRK1 Invitrogen Lab (UK) kinase screen (BI); details: Compound concentration 1.0 uM
[34] = molecular target: Alpha-2B adrenergic receptor (Homo sapiens) (UniProt P18089); details: Compound concentration 10.0 uM
Sequence of Alpha-2B adrenergic receptor (Homo sapiens) (P18089 whole entry): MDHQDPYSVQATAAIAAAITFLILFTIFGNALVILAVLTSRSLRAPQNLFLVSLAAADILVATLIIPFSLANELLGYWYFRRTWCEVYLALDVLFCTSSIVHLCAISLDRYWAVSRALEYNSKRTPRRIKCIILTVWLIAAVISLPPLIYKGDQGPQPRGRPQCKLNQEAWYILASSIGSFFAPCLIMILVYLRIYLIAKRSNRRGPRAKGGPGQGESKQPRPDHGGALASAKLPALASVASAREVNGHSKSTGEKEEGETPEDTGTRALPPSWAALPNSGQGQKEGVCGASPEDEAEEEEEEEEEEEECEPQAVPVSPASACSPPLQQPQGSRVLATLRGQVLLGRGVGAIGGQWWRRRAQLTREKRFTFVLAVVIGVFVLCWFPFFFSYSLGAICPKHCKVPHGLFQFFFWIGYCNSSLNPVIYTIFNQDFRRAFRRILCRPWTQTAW

[35] = molecular target: Muscarinic acetylcholine receptor M3 (Homo sapiens, UniProt P20309); assay: GPCRScan assay: inhibition of M3; design: radioligand conc. used [nm] 0.3 – 1.0, parental cells stable CHO
Sequence of Muscarinic acetylcholine receptor M3 (P20309 whole entry): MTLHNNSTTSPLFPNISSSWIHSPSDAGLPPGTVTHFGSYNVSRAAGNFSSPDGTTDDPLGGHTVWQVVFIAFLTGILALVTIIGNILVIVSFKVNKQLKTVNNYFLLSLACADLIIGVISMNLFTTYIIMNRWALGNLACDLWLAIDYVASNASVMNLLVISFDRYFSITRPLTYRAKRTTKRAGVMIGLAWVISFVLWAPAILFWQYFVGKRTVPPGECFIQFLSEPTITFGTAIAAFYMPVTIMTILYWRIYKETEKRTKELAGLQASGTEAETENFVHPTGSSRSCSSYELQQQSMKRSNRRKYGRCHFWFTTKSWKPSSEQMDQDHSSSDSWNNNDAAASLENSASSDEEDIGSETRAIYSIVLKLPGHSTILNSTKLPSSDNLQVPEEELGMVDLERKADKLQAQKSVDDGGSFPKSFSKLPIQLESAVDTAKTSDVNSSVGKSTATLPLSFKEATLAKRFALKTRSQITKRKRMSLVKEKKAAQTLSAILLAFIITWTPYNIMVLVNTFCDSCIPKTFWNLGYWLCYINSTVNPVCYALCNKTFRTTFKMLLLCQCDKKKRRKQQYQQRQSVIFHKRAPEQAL

[36] = molecular target: Serine/threonine-protein kinase PLK1 (Homo sapiens) (UniProt P53350); assay: PLK1 Invitrogen Lab (UK) kinase screen (BI); details: Compound concentration 1.0 uM
[37] = molecular target: Muscarinic acetylcholine receptor M5 (Homo sapiens) (UniProt P08912); details: Compound concentration 10.0 uM
Sequence of Muscarinic acetylcholine receptor M5 (Homo sapiens) (P08912 whole entry): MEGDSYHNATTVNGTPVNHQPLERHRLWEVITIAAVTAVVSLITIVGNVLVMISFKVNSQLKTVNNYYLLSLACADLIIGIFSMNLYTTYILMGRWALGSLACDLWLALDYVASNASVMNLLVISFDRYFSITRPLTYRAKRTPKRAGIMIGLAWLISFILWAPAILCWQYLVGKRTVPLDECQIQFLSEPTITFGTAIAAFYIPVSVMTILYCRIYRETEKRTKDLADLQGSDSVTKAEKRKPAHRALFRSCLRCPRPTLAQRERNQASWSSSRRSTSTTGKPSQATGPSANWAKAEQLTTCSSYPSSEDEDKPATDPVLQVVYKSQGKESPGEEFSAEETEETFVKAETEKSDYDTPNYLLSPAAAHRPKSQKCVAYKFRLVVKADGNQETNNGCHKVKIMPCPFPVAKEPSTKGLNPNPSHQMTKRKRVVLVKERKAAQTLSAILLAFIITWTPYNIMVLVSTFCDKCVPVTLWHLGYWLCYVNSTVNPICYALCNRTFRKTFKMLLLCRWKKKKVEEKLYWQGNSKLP

[38] = molecular target: Angiotensin-converting enzyme (Homo sapiens) (UniProt P12821); assay: ACE(HU_AMTCH400) Eurofins SafetyScreen44 (BI); details: Compound concentration 10.0 uM
[39] = molecular target: Histamine H2 receptor (Homo sapiens) (UniProt P25021); assay: H2/APT/HS Eurofins SafetyScreen44 (BI); details: filed as antagonist, Compound concentration 10.0 uM
[40] = molecular target: GABA-A receptor; anion channel (Rattus norvegicus) (UniProt O09028+P15431+P18506+P18508+P19969+P20236+P23574+P23576+P28471+P28473+P30191+P62813+P63079+P63138+Q91ZM7+Q9ES14); assay: BZD/CENTR/R Eurofins SafetyScreen44 (BI); assay type: protein-complex assay; details: Compound concentration 10.0 uM

Sequence of Alpha-2A adrenergic receptor (Homo sapiens) (P08913 whole entry): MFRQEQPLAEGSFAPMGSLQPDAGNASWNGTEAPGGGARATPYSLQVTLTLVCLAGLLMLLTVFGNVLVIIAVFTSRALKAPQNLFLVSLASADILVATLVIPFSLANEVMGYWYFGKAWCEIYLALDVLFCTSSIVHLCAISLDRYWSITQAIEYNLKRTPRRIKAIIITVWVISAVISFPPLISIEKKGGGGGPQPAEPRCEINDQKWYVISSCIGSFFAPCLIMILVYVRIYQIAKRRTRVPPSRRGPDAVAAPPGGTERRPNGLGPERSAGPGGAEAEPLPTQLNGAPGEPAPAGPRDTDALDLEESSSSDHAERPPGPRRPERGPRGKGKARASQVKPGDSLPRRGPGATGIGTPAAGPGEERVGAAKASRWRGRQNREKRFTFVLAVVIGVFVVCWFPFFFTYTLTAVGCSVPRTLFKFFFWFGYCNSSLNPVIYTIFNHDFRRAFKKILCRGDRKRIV

inhibition [2]: 15.1% | residual activity [3]: 98% | residual activity [4]: 97% | residual activity [6]: 98% | inhibition [7]: 17.4% | residual activity [8]: 90% | residual activity [10]: 91% | residual activity [12]: 91% | residual activity [15]: 93% | Ki ([17]; read-out: Ki): 878 nM | Ki ([17]; read-out: pKi (converted)): 851 nM | IC50 [18]: ≤ 3 nM (active) | inhibition [19]: 20.9% | inhibition [21]: 17.7% | inhibition [23]: 4.51% | residual activity [24]: 99% | IC50 [26]: 40 nM (active) | residual activity [27]: 95% | inhibition [28]: 19.5% | residual activity [30]: 89% | residual activity [33]: 96% | inhibition [34]: 20.7% | Ki [35]: > 10000 nM | pKi [35]: < 5 | residual activity [36]: 100% | inhibition [37]: -7.06%
Compound: CNC(=O)COc1cc2cc(Nc3nc(N4CCC(C(=O)N(C)C)CC4)ncc3Cl)cc(OC)c2n(C)c1=O
residual activity [1]: 104% | residual activity [5]: 98% | residual activity [9]: 98% | residual activity [11]: 74% | residual activity [13]: 131% | activity at 10 µM [14]: 103% (not active) | activity at 10 µM (hERG (KCNH2)): 92% (not active) | residual activity [16]: 86% | activity at 10 µM [20]: 95% (not active) | residual activity [22]: 104% | residual activity [25]: 142% | residual activity [29]: 95% | residual activity [31]: 105% | residual activity [32]: 121% | residual activity [38]: 96% | residual activity [39]: 104% | residual activity [40]: 125%

Source: ChEMBL document CHEMBL5303764, “Data for DCP probe BI-3812” (2023)
